Molecular target: truncated PI3Kα (p110α/iSH2 p85α) (Homo sapiens (Human), UniProt P42336)
Assay: PI3KA_Act fluorescence polarization kinase assay (Ki)
Format: biochemical
Conditions: 1 mM ATP
Method in brief: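 Ki values result from fitting fluorescence polarization signals to the Morrison equation for tight-binding competitive inhibitors. The detector was GST-Grp1 PH domain with TAMRA-PIP3, read after a 30 min room-temperature reaction of 0.5 nM truncated PI3Kα and 30 μM PIP2 at pH 7.4 in HEPES/NaCl/MgCl2/DTT/CHAPS buffer. Compounds were tested as 12-point 3-fold dilutions from 3 μM.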

Chain of truncated PI3Kα (p110α/iSH2 p85α) (P42336 whole entry, the tested form may be a part): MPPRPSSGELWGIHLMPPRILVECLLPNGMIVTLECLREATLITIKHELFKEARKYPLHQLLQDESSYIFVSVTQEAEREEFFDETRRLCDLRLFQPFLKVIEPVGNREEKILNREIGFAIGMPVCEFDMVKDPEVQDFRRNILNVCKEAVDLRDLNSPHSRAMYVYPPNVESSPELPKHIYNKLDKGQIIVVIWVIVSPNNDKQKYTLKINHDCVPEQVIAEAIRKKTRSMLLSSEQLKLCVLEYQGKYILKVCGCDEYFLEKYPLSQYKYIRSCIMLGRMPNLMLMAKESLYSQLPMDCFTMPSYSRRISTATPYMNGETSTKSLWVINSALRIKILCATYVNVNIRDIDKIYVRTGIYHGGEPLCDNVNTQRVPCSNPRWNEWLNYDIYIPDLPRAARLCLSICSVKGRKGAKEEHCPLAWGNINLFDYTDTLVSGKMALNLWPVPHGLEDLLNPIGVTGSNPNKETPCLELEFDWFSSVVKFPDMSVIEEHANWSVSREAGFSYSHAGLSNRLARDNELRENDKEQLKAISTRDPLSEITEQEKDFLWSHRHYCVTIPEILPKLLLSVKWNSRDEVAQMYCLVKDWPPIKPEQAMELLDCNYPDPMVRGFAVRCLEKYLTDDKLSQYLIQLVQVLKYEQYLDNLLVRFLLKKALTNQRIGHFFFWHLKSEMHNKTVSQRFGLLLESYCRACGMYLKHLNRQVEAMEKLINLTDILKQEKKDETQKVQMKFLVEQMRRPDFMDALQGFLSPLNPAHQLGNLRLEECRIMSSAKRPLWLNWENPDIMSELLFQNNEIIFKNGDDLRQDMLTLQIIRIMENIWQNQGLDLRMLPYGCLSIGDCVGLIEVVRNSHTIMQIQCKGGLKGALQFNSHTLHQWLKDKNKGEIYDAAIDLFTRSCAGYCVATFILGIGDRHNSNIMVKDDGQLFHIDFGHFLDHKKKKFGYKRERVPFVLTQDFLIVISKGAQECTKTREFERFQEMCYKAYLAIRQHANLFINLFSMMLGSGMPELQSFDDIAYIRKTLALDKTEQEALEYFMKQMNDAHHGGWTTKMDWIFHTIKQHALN

Going from `C[C@@H]1COCCN1c1nc(-c2cnc(N)nc2)c2c(n1)N([C@]1(C)CCN(C(=O)OC(C)(C)C)C1)CC2` [Example 230] to `CC(C)(C)OC(=O)N1CC(C)(N2CCc3c(-c4cnc(N)nc4)nc(N4CCOCC4)nc32)C1` [Example 249, tert-butyl 3-[4-(2-aminopyrimidin-5-yl)-2-(morpholin-4-yl)-5,6-dihydro-7H-pyrrolo[2,3-d]pyrimidin-7-yl]-3-methylazetidine-1-carboxylate], the “PI3KA_Act Ki” value falls from 6.996 nM to 0.019 nM (370-fold).

Going from `C[C@@H]1COCCN1c1nc(-c2cnc(N)nc2)c2c(n1)N([C@@]1(C)CCN(S(C)(=O)=O)C1)CC2` [Example 231] to `C[C@@H]1COCCN1c1nc(-c2cnc(N)nc2)c2c(n1)N([C@]1(C)CCN(S(C)(=O)=O)C1)CC2` [Example 232], the “PI3KA_Act Ki” value rises from 1.493 nM to 4.263 nM (2.9-fold).

`CC(=O)N1CC(C)(N2CCc3c(-c4cnc(N)nc4)nc(N4CCOCC4)nc32)C1` [Example 240, 1-{3-[4-(2-aminopyrimidin-5-yl)-2-(morpholin-4-yl)-5,6-dihydro-7H-pyrrolo[2,3-d]pyrimidin-7-yl]-3-methylazetidin-1-yl}ethanone] and `CC(=O)N1CC[C@@](C)(N2CCc3c(-c4cnc(N)nc4)nc(N4CCOCC4)nc32)C1` [Example 259, 1-{(3R)-3-[4-(2-aminopyrimidin-5-yl)-2-(morpholin-4-yl)-5,6-dihydro-7H-pyrrolo[2,3-d]pyrimidin-7-yl]-3-methylpyrrolidin-1-yl}ethanone] are within 1.5-fold of each other in “PI3KA_Act Ki” value: 0.093 nM for the first, 0.139 nM for the second.

Going from `CC(C)(O)C(=O)N1CC(N2CCc3c(-c4cnc(N)nc4)nc(N4CCOCC4)nc32)C1` [Example 241, 1-{3-[4-(2-aminopyrimidin-5-yl)-2-(morpholin-4-yl)-5,6-dihydro-7H-pyrrolo[2,3-d]pyrimidin-7-yl]azetidin-1-yl}-2-hydroxy-2-methylpropan-1-one] to `CC(C)(C)OC(=O)N1CC(N2CCc3c(-c4cnc(N)nc4)nc(N4CCOCC4)nc32)C1` [Example 248, tert-butyl 3-[4-(2-aminopyrimidin-5-yl)-2-(morpholin-4-yl)-5,6-dihydro-7H-pyrrolo[2,3-d]pyrimidin-7-yl]azetidine-1-carboxylate], the “PI3KA_Act Ki” value falls from 1.174 nM to 0.212 nM (5.5-fold).

`CC(C)(O)C(=O)N1CC(C)(N2CCc3c(-c4cnc(N)nc4)nc(N4CCOCC4)nc32)C1` [Example 242, 1-{3-[4-(2-aminopyrimidin-5-yl)-2-(morpholin-4-yl)-5,6-dihydro-7H-pyrrolo[2,3-d]pyrimidin-7-yl]-3-methylazetidin-1-yl}-2-hydroxy-2-methylpropan-1-one] and `CC(C)(N)C(=O)N1CC(C)(N2CCc3c(-c4cnc(N)nc4)nc(N4CCOCC4)nc32)C1` [Example 243, 2-amino-1-{3-[4-(2-aminopyrimidin-5-yl)-2-(morpholin-4-yl)-5,6-dihydro-7H-pyrrolo[2,3-d]pyrimidin-7-yl]-3-methylazetidin-1-yl}-2-methylpropan-1-one] are within 1.5-fold of each other in “PI3KA_Act Ki” value: 0.158 nM for the first, 0.165 nM for the second.

Compared with `CCC(=O)NCC(=O)N1CC(N2CCc3c(-c4cnc(N)nc4)nc(N4CCOCC4)nc32)C1` [Example 244, N-(2-{3-[4-(2-aminopyrimidin-5-yl)-2-(morpholin-4-yl)-5,6-dihydro-7H-pyrrolo[2,3-d]pyrimidin-7-yl]azetidin-1-yl}-2-oxoethyl)propanamide], `CC1(C(=O)N2CC(N3CCc4c(-c5cnc(N)nc5)nc(N5CCOCC5)nc43)C2)CC1` [Example 245, {3-[4-(2-aminopyrimidin-5-yl)-2-(morpholin-4-yl)-5,6-dihydro-7H-pyrrolo[2,3-d]pyrimidin-7-yl]azetidin-1-yl}(1-methylcyclopropyl) methanone] is 7-fold higher in “PI3KA_Act Ki” value: 0.598 nM for the first, 4.212 nM for the second.

`CC1(C(=O)N2CC(C)(N3CCc4c(-c5cnc(N)nc5)nc(N5CCOCC5)nc43)C2)CC1` [Example 246, {3-[4-(2-aminopyrimidin-5-yl)-2-(morpholin-4-yl)-5,6-dihydro-7H-pyrrolo[2,3-d]pyrimidin-7-yl]-3-methylazetidin-1-yl}(1-methylcyclopropyl) methanone] and `COC(=O)N1CC(C)(N2CCc3c(-c4cnc(N)nc4)nc(N4CCOCC4)nc32)C1` [Example 247, methyl 3-[4-(2-aminopyrimidin-5-yl)-2-(morpholin-4-yl)-5,6-dihydro-7H-pyrrolo[2,3-d]pyrimidin-7-yl]-3-methylazetidine-1-carboxylate] are within 1.5-fold of each other in “PI3KA_Act Ki” value: 0.060 nM for the first, 0.055 nM for the second.

First: CNC(=O)N1CC(C)(N2CCc3c(-c4cnc(N)nc4)nc(N4CCOCC4)nc32)C1 [Example 250, 3-[4-(2-aminopyrimidin-5-yl)-2-(morpholin-4-yl)-5,6-dihydro-7H-pyrrolo[2,3-d]pyrimidin-7-yl]-N,3-dimethylazetidine-1-carboxamide]
Second: CCC(=O)N1CC[C@](C)(N2CCc3c(-c4cnc(N)nc4)nc(N4CCOCC4)nc32)C1 [Example 260, 1-{(3S)-3-[4-(2-aminopyrimidin-5-yl)-2-(morpholin-4-yl)-5,6-dihydro-7H-pyrrolo[2,3-d]pyrimidin-7-yl]-3-methylpyrrolidin-1-yl}propan-1-one]
The “PI3KA_Act Ki” value of the first is 4-fold higher: 0.120 nM for the first, 0.030 nM for the second.

Compared with `Nc1ncc(-c2nc(N3CCOCC3)nc3c2CCN3C2CN(S(=O)(=O)C3CCC3)C2)cn1` [Example 251, 5-{7-[1-(cyclobutylsulfonyl)azetidin-3-yl]-2-(morpholin-4-yl)-6,7-dihydro-5H-pyrrolo[2,3-d]pyrimidin-4-yl}pyrimidin-2-amine], `Nc1ncc(-c2nc(N3CCOCC3)nc3c2CCN3C2CN(S(=O)(=O)N3CCC3)C2)cn1` [Example 252, 5-{7-[1-(azetidin-1-ylsulfonyl)azetidin-3-yl]-2-(morpholin-4-yl)-6,7-dihydro-5H-pyrrolo[2,3-d]pyrimidin-4-yl}pyrimidin-2-amine] is 10-fold lower in “PI3KA_Act Ki” value: 1.652 nM for the first, 0.158 nM for the second.

First: C[C@]1(N2CCc3c(-c4cnc(N)nc4)nc(N4CCOCC4)nc32)CCNC1.Cl [Example 253, 5-{7-[(3S)-3-methylpyrrolidin-3-yl]-2-(morpholin-4-yl)-6,7-dihydro-5H-pyrrolo[2,3-d]pyrimidin-4-yl}pyrimidin-2-amine hydrochloride]
Second: CC[C@@]1(N2CCc3c(-c4cnc(N)nc4)nc(N4CCOCC4)nc32)CCNC1.Cl [Example 256, 5-{7-[(3R)-3-ethylpyrrolidin-3-yl]-2-(morpholin-4-yl)-6,7-dihydro-5H-pyrrolo[2,3-d]pyrimidin-4-yl}pyrimidin-2-amine hydrochloride]
The “PI3KA_Act Ki” value of the first is 7.1-fold lower: 0.160 nM for the first, 1.131 nM for the second.

First: Cl.Nc1ncc(-c2nc(N3CCOCC3)nc3c2CCN3[C@@H]2CNC[C@@H]2F)cn1 [Example 254, 5-{7-[(3R,4S)-4-fluoropyrrolidin-3-yl]-2-(morpholin-4-yl)-6,7-dihydro-5H-pyrrolo[2,3-d]pyrimidin-4-yl}pyrimidin-2-amine hydrochloride]
Second: Cl.Nc1ncc(-c2nc(N3CCOCC3)nc3c2CCN3[C@H]2CNC[C@H]2F)cn1 [Example 255, 5-{7-[(3S,4R)-4-fluoropyrrolidin-3-yl]-2-(morpholin-4-yl)-6,7-dihydro-5H-pyrrolo[2,3-d]pyrimidin-4-yl}pyrimidin-2-amine hydrochloride]
The “PI3KA_Act Ki” value of the first is 1.6-fold higher: 1.893 nM for the first, 1.168 nM for the second.

First: CC[C@]1(N2CCc3c(-c4cnc(N)nc4)nc(N4CCOCC4)nc32)CCNC1.Cl [Example 257, 5-{7-[(3S)-3-ethylpyrrolidin-3-yl)-2-(morpholin-4-yl)-6,7-dihydro-5H-pyrrolo[2,3-d]pyrimidin-4-yl}pyrimidin-2-amine hydrochloride]
Second: C[C@]1(N2CCc3c(-c4cnc(N)nc4)nc(N4CCOCC4)nc32)CCNC1=O [Example 258, (3S)-3-[4-(2-aminopyrimidin-5-yl)-2-(morpholin-4-yl)-5,6-dihydro-7H-pyrrolo[2,3-d]pyrimidin-7-yl]-3-methylpyrrolidin-2-one]
The “PI3KA_Act Ki” value of the first is 33-fold lower: 0.955 nM for the first, 31.787 nM for the second.

With `CCC(=O)N1CC[C@@](C)(N2CCc3c(-c4cnc(N)nc4)nc(N4CCOCC4)nc32)C1` [Example 261, 1-{(3R)-3-[4-(2-aminopyrimidin-5-yl)-2-(morpholin-4-yl)-5,6-dihydro-7H-pyrrolo[2,3-d]pyrimidin-7-yl]-3-methylpyrrolidin-1-yl}propan-1-one] the “PI3KA_Act Ki” value was 0.143 nM.

`[2H]C1([2H])CN(c2nc(-c3cnc(N)nc3)c3c(n2)N([C@@]2(C)CCN(C(=O)C(C)(C)N)C2)CC3)CC([2H])([2H])O1` [Example 233] and `[2H]C1([2H])CN(c2nc(-c3cnc(N)nc3)c3c(n2)N([C@@]2(C)CCN(C(=O)OC(C)(C)C)C2)CC3)CC([2H])([2H])O1` [Example 239] cannot be ordered by Ki: less than 0.018 nM for the first, less than 0.018 nM for the second.

`[2H]C1([2H])CN(c2nc(-c3cnc(N)nc3)c3c(n2)N([C@@]2(C)CCN(C(=O)C(C)(C)NC(=O)OC(C)(C)C)C2)CC3)CC([2H])([2H])O1` [Example 234] and `[2H]C1([2H])OC([2H])([2H])C([2H])([2H])N(c2nc(-c3cnc(N)nc3)c3c(n2)N([C@@]2(C)CCN(C(=O)C(C)(C)NC(=O)OC(C)(C)C)C2)CC3)C1([2H])[2H]` [Example 235] are within 1.5-fold of each other in Ki: 0.509 nM for the first, 0.693 nM for the second.

First: [2H]C1([2H])OC([2H])([2H])C([2H])([2H])N(c2nc(-c3cnc(N)nc3)c3c(n2)N([C@@]2(C)CCN(C(=O)C4(C)CC4)C2)CC3)C1([2H])[2H] [Example 236]
Second: [2H]C1([2H])CN(c2nc(-c3cnc(N)nc3)c3c(n2)N([C@@]2(C)CCN(C(=O)C4(C)CC4)C2)CC3)CC([2H])([2H])O1 [Example 237]
The Ki of the first is lower: less than 0.018 nM for the first, 0.025 nM for the second.

In the case of `[2H]C1([2H])OC([2H])([2H])C([2H])([2H])N(c2nc(-c3cnc(N)nc3)c3c(n2)N([C@@]2(C)CCN(C(=O)OC(C)(C)C)C2)CC3)C1([2H])[2H]` [Example 238], the Ki is reported as less than 0.018 nM.

`CC(C)C(=O)N1CC[C@](C)(N2CCc3c(-c4cnc(N)nc4)nc(N4CCOCC4)nc32)C1` [Example 262, 1-{(3S)-3-[4-(2-aminopyrimidin-5-yl)-2-(morpholin-4-yl)-5,6-dihydro-7H-pyrrolo[2,3-d]pyrimidin-7-yl]-3-methylpyrrolidin-1-yl}-2-methylpropan-1-one] was tested, and the “PI3KA_Act Ki” value was less than 0.018 nM.

Source: US9260439B2, “Dihydropyrrolopyrimidine derivatives” (PFIZER INC., priority 2014, dated 2016)
